Where a SMILES comes first, the peptide text is derived from it. The star is where a group is joined. Lauroyl = CCCCCCCCCCCC(=O)*
Tested on: S. aureus
Assay: LIVE/DEAD BacLight bacterial viability
Assay type: cell-based, Staphylococcus aureus
Details: 0.39-25 µg/mL, 3 and 6 h of co-incubation
Protocol: Evaluation of the bacterial viability in the presence or absence of the tested compounds was performed according to the protocols developed for the laboratory kit LIVE/DEAD ®® BacLight TM Bacterial Viability Kits (Molecular Probes Europe BV, Amsterdam, The Netherlands). Briefly, late log phase cultures of E. coli and S. aureus in Luria-Bertani broth were harvested by centrifugation at 4000× g, the supernatant was removed, and pellets were resuspended in sterile water solution of 0.85% NaCl. Again, bacterial cells were centrifuged under the same conditions. In order to remove traces of growth, the medium washing step was repeated twice. At the end, pellets were resuspended in a fresh sterile 0.85% NaCl solution and diluted, yielding suspensions of E. coli, containing about 2 × 10^8 CFU/mL, and S. aureus with about 2 × 10^7 CFU/mL. Subsequently, 90 µL of bacterial suspensions (E. coli or S. aureus, respectively) were transferred to 96-well microtiter plates and 10 µL of the tested peptides were added to final concentrations ranging from 0.39 µg/mL to 25 µg/mL. […] Fluorescence was read with excitation wavelength set at 485 nm and emission wavelengths set at 530 nm (for green dye) and 630 nm (red dye) by means of CLARIOstar®® plate reader (BMG LABTECH, Germany).

CCCCCCCCCCCC(=O)N[C@H](C(=O)N[C@@H](CCCCN)C(=O)N[C@@H](CCCCN)C(=O)N[C@H](C(=O)N[C@@H](CC(C)C)C(=O)N[C@@H](CO)C(=O)N[C@@H](CCCCN)C(=O)N[C@H](C(=O)N[C@@H](CCCCN)C(=O)N[C@@H](CCCCN)C(=O)N[C@@H](CC(C)C)C(=O)N[C@@H](CC(C)C)C(N)=O)[C@@H](C)CC)[C@@H](C)CC)[C@@H](C)CC [Compound C12-DK5] (Lauroyl-IKKILSKIKKLL-NH2)
relative viability of S. aureus (live/dead): most active

From paper PMC8269107, “Lipidation of Temporin-1CEb Derivatives as a Tool for Activity Improvement, Pros and Cons of the Approach” (International Journal of Molecular Sciences, 2021)
